Several values for one entry are separate records, joined by “and”; a condition that tells them apart may be missing. Identical values can stand only once.
Tests used:
Chronic = type: in vivo, beagle dogs
Tau = Tau biochemistry and histology in 3xTg-AD mice; type: in vivo, mouse
[1] = test system: NR2B subunit of NMDA-type Glu receptors; assay: Acute brain slice assay, pY-1472 NR2B immunoblot relative to total NR2B; type: cell-based, mouse
APP/Aβ = assay: APP metabolism and Aβ accumulation in brain of treated mice; type: in vivo, mouse; settings: 5 mg/kg/d
Pyk2 [2] = biological target: Pyk2 (Homo sapiens, UniProt Q14289); assay: LanthaScreen Europium Kinase Binding Assay
APP/PS1 transgenic mice [3] = assay: Novel object recognition; type: in vivo, mouse; settings: 5 mg/kg/d, 6 weeks treatment
APP/PS1 transgenic mice [4] = assay: Morris water maze; type: in vivo, mouse
Pyk2 [5] = assay: Acute brain slice assay, p-Pyk2; type: cell-based, mouse
Pyk2 [6] = assay: Activated pPyk2 levels in brain of APP/PS1 and WT mice; type: in vivo, mouse
APP/PS1 transgenic mice [7] = assay: Glial reaction in cortex; type: in vivo, mouse; settings: 5 mg/kg/d, 7 weeks
[8] = AZD0530 pharmacokinetics in mice; type: in vivo, mouse
APP/PS1 transgenic mice [9] = assay: Synapse density in dentate gyrus; type: in vivo, mouse; settings: 5 mg/kg/d, 7 weeks
[10] = ref [27]; cited from earlier work
[11] = RIPA extracts of TBS-insoluble material, 5 mg/kg/d 40 days
[12] = RIPA-insoluble fractions, 5 mg/kg/d 40 days
[13] = APP/PS1 mice, 5 mg/kg/d, 1-2 weeks treatment
[14] = APP/PS1 mice, 5 mg/kg/d, 3-5 weeks treatment

Chain of Pyk2 (Homo sapiens, UniProt Q14289) (Q14289 whole entry): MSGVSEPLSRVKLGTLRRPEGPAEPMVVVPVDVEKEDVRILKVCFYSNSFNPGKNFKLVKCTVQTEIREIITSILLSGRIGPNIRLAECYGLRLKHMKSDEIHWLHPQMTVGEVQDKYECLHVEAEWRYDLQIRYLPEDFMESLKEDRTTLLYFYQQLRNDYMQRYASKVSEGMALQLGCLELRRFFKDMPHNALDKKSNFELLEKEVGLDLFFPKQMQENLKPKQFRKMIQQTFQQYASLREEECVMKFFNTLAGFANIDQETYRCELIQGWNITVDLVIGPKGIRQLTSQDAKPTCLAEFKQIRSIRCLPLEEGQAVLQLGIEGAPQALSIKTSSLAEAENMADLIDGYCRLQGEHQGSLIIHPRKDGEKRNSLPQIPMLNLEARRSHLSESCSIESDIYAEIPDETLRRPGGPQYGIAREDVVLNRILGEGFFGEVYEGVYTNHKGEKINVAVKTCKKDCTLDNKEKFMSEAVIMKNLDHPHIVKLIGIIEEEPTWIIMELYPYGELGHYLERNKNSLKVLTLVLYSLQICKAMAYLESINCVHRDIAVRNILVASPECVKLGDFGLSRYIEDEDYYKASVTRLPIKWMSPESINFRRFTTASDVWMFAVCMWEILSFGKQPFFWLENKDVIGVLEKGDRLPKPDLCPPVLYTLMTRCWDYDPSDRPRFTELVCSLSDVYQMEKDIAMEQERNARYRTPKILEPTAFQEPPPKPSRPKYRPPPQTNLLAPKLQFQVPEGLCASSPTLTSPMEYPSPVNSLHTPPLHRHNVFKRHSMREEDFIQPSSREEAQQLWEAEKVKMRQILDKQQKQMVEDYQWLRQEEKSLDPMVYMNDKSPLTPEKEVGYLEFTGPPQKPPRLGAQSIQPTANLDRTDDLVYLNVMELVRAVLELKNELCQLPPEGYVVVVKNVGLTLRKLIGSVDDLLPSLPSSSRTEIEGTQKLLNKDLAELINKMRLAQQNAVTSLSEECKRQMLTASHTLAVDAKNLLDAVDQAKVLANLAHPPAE

Question: For `CN1CCN(CCOc2cc(OC3CCOCC3)c3c(Nc4c(Cl)ccc5c4OCO5)ncnc3c2)CC1` [AZD0530, N-(5-chloro-1,3-benzodioxol-4-yl)-7-[2-(4-methylpiperazin-1-yl)ethoxy]-5-(tetrahydro-2H-pyran-4-yloxy)quinazolin-4-amine], which NOAEL at 273 days (Chronic; both, beagle, dog, in vivo, po) is on record?
Answer: > 5 mg/kg/day

Question: And the “body weight, hematological and coagulation parameters vs vehicle” value (Chronic; dog, 0.5, 2 or 5 mg/kg/d, 273 days)?
Answer: no statistically significant difference

Question: And the tolerability (Chronic; dog, 39 weeks oral gavage at 0.5, 2 and 5 mg/kg/day)?
Answer: tolerated at all dose levels tested

Question: And the “abnormal measurement or pathology” value (Chronic; dog, any group including 5 mg/kg/d, 273 days)?
Answer: No significantly abnormal measurement or evidence of pathology was detected

Question: What about the “human Tau transgene mRNA (qRT-PCR)” value (Tau; 3xTg-AD mice, 5 mg/kg/d, data not shown) of the same compound?
Answer: not changed

Question: What about the “decrease of pTau pS396 vs control 3xTg” value (Tau; [11]) of the same compound?
Answer: 53%

Question: And the “decrease of total Tau vs control 3xTg” value (Tau; [11])?
Answer: 74%

Question: What about the “decrease of insoluble human Tau” value (Tau; [12]) of the same compound?
Answer: 56%

Question: And the “decrease of insoluble total Tau” value (Tau; [12])?
Answer: 41%

Question: What about the “basal phosphorylation of NR2B” value ([1]; brain slices without Aβo) of the same compound?
Answer: suppresses

Question: And the “Aβo-induced phosphorylation of NR2B” value ([1]; brain slices, 1 μM Aβo 30 min)?
Answer: full blocks

Question: And the APP/Aβ metabolism (APP/Aβ; 3xTg-AD mice, data not shown)?
Answer: no effect

Question: What about the “APP fragments, Aβ plaque and different Aβ species vs vehicle-treated transgenic mice” value (APP/Aβ; APP/PS1 mice, 7 weeks) of the same compound?
Answer: no difference

Question: And the IC50 (Pyk2 [2])?
Answer: > 250 µM

Question: What about the Pyk2 substrate binding (Pyk2 [2]; AZD0530 at concentrations up to 100 μM) of the same compound?
Answer: unaffected

Question: What about the “Novel Object Recognition performance” value (APP/PS1 transgenic mice [3]) of the same compound?
Answer: performance equal to the WT mice

Question: And the water maze performance (APP/PS1 transgenic mice [4]; APP/PS1 mice, 2 mg/kg/d, 3-5 weeks treatment)?
Answer: fails to improve water maze performance

Question: And the “impaired rate of acquisition during swims to a hidden platform” value (APP/PS1 transgenic mice [4]; [13])?
Answer: no improvement

Question: What about the “memory recall during 60 sec probe trial” value (APP/PS1 transgenic mice [4]; [13]) of the same compound?
Answer: no improvement

Question: What about the “latencies to the hidden platform (spatial learning)” value (APP/PS1 transgenic mice [4]; [14]) of the same compound?
Answer: eliminates the pre-existing transgenic deficit

Question: What about the “probe trial, preference for target quadrant” value (APP/PS1 transgenic mice [4]; [14]) of the same compound?
Answer: same strong preference for the target quadrant as do WT mice

Question: What about the “latencies to a hidden platform” value (APP/PS1 transgenic mice [4]; WT mice, 5 mg/kg/d) of the same compound?
Answer: not altered

Question: What about the “basal Pyk2 activation” value (Pyk2 [5]; brain slices without Aβo) of the same compound?
Answer: suppresses

Question: What about the “Aβo stimulation of Pyk2 activation” value (Pyk2 [5]; brain slices, 1 μM Aβo 30 min) of the same compound?
Answer: blocks

Question: What about the “increase of p(Y402)Pyk2 in hippocampal CA1 and CA3 cell body layers (histology)” value (Pyk2 [6]; APP/PS1 mice, 5 mg/kg/d for 7 weeks) of the same compound?
Answer: reversed by AZD0530 treatment

Question: What about the pPyk2 level (Pyk2 [6]; WT mice) of the same compound?
Answer: does not significantly alter pPyk2

Question: And the “activated pPyk2 level (immunoblot), hippocampus” value (Pyk2 [6]; aged APP/PS1 mice, 5 mg/kg/d)?
Answer: reduces activated pPyk2 level to that of WT mice exposed to vehicle

Question: And the “astrocytic reaction (GFAP)” value (APP/PS1 transgenic mice [7])?
Answer: no significant change

Question: And the “extent of microglial induction (Iba1)” value (APP/PS1 transgenic mice [7])?
Answer: significantly reduced

Question: And the inhibition at 5 mg/kg/day ([8]; Mus musculus, po, read-out: expected inhibition of Fyn kinase activity in brain)?
Answer: ≥ 50%

Question: And the apparent brain half-life ([8]; mouse, 5 mg/kg/d for 3 days)?
Answer: 16 h

Question: And the peak brain level ([8]; mouse, 5 mg/kg/d oral b.i.d., 30-60 min after dosing, 5 mg/kg/day)?
Answer: 27 ng/g and 50 nM

Question: What about the “peak CSF level” value ([8]; mouse, 5 mg/kg/d, one pooled sample, 5 mg/kg/day) of the same compound?
Answer: 7 ng/ml and 13 nM

Question: And the “CSF level as % of brain level” value ([8]; mouse, 6 oral b.i.d. doses, 30-60 min after dosing)?
Answer: about 35%

Question: What about the concentration at 12 h ([8]; mouse, CSF, oral, 5 mg/kg/day, trough CSF range calculated from multiple brain samples, 5 mg/kg/d) of the same compound?
Answer: 3.1 ng/mL to 7.6 ng/mL and 5.8 nM to 14 nM

Question: And the half-life ([8]; mouse, brain, oral, 5 mg/kg/day, apparent brain half-life, 5 mg/kg/d for 3 days)?
Answer: ~16 h

Question: What about the “synapse density (PSD-95, SV2a puncta)” value (APP/PS1 transgenic mice [9]; APP/PS1 transgenic mice) of the same compound?
Answer: fully restores synaptic puncta to WT levels

Question: What about the “synapse density (PSD-95, SV2a puncta)” value (APP/PS1 transgenic mice [9]; WT mice) of the same compound?
Answer: does not alter synapse density

Question: And the “half-life of the compound in humans” value [10]?
Answer: between one and two days
